Literature values as cited in patent publication US6358940B1, “Modified 2-Alkoxyestradiol derivatives with prolonged pharmacological activity” (priority 1999, dated 2002).

Key:
[1] = test system: tubulin polymerization; conditions: antitubulin activity and cytotoxicity
[2] = test system: neovascularization; conditions: in vivo
[3] = test system: angiogenesis
[4] = test system: cancer cell cultures
[5] = test system: human non-small cell lung cancer line

Structure (SMILES)	potency relative to 2-methoxyestradiol [1]	inhibition of neovascularization ([2]; mice)	signs of toxicity ([2]; mouse)	inhibitory effect on angiogenesis [3]	cytotoxicity [4]	apoptotic cell death ([5]; after drug treatment)	wild-type p53 levels ([5]; human non-small cell lung cancer line, with accumulation of p21WAF1/CIP1)
CC=Cc1cc2c(cc1O)CCC1C2CCC2(C)C(O)CCC12 (stereo not drawn) [2-((E)-l-propenyl)-estradiol]	substantially more potent than 2-methoxyestradiol	–	–	–	–	–	–
CCOc1cc2c(cc1O)CC[C@@H]1[C@@H]2CC[C@]2(C)[C@@H](O)CC[C@@H]12 [2-Ethoxyestradiol]	substantially more potent than 2-methoxyestradiol	–	–	–	–	–	–
COc1cc2c(cc1O)CC[C@@H]1[C@@H]2CC[C@]2(C)[C@@H](O)CC[C@@H]12 [2-methoxyestradiol]	–	potent inhibitor of neovascularization	No signs of toxicity	strong inhibitory effect on angiogenesis	cytotoxic	Significant apoptotic cell death	increases wild-type p53 levels
